Experimental data from patent EP4635976A1, “CONSTANT UNI-TABS” (Medigene Immunotherapies GmbH, priority 2024, dated 2025).
Marks after values point to notes of the source that are not given here.

Assays:
Assay in all cases: Peptide mismatched library: peptide-loaded T2 cells co-cultured with TCR-transduced CD8+ T cells, IFN-γ-ELISA
Type in all cases: cell-based
[1] = test system: WT NY-ESO_PD1-41 BB TCR ("SWAT"); settings: for IFN-γ [pg/ml production] MIT 045 SWAT: donor MIT045; for IFN-γ [pg/ml production] MIT 045 SWAT / IFN-γ [pg/ml production] MIT038 SWAT: CD8^+ T cells transduced with WT NY-ESO_PD1-41 BB TCR (SWAT), mismatch peptide loaded on T2 cells, IFNg-ELISA; for IFN-γ [pg/ml production] MIT038 SWAT: donor MIT038
Text: (§1) The aim was to further compare the WT NY-ESO-1 with two UNI-TABS NY-ESO-TCRs (Position A199 in loop 1 and A245 in loop 2) in combination with PD1_41 BB regarding allogeneic HLA cross-recognition and HLA fine typing.
(§2) To test a peptide mismatched library, 336 different mismatched peptides, differing from 1-4 amino acids from the wild-type peptide recognized by the WT TCR were loaded on T2 cells and co-cultured with CD8^+ T cell transduced with either wt NY-ESO_PD1-41 BB TCR, NY-ESO-UniTABS-A199_PD1-41 BB TCR or NY-ESO-UniTABS-A245_PD1-41 BB TCR. The culture supernatant was collected, and an IFN-γ-ELISA performed.
(§3) The sequences and the numbers of the respective mismatch peptides are listed. The cells contain the values of IFN-γ [pg/ml production]. BetaA199: UniTAB epitope set forth in SEQ ID NO: 47 inserted in loop1 at position A199 flanked by GSG linker sequences, BetaA245: UniTAB epitope set forth in SEQ ID NO: 47 inserted in loop 2 at position A245 flanked by GSG linker sequences. Table 2: Mismatched peptides recognized by NY-ESO WT and NY-ESO variants

[2] = test system: NY-ESO-A199_PD1-41 BB TCR (UniTAB1); settings: CD8^+ T cells transduced with NY-ESO-A199_PD1-41 BB TCR (UniTAB1), mismatch peptide loaded on T2 cells, IFNg-ELISA; for IFN-γ [pg/ml production] MIT038 UniTABs-A199: donor MIT038
Text: as §1, §2, §3

[3] = test system: NY-ESO-A245_PD1-41 BB TCR (UniTAB2); settings: donor MIT045; CD8^+ T cells transduced with NY-ESO-A245_PD1-41 BB TCR (UniTAB2); mismatch peptide loaded on T2 cells; IFNg-ELISA
Text: as §1, §2, §3

Sequence	recognition of mismatched peptide (IFN-γ response) ([1]; WT TCR-PD1-41BB transduced T cells, two donors)	IFN-γ [pg/ml production] MIT 045 SWAT [1]	IFN-γ [pg/ml production] MIT038 SWAT [1]	IFN-γ [pg/ml production] MIT038 UniTABs-A199 [2]	IFN-γ [pg/ml production] MIT 045 UniTABs-A199 ([2]; donor MIT045)	IFN-γ [pg/ml production] MIT 045 UniTABs-A245 [3]
ICLQWITQC [compound 8]	only recognized by WT TCR transduced T cells of one donor	24.7**** pg/ml	–	–	–	–
NLLFWICGC [compound 221]	–	100.6* pg/ml	788.9* pg/ml	900.2* pg/ml	889.3* pg/ml	0.0* pg/ml
SLLCYIKHC [compound 239]	–	32.1** pg/ml	228.6** pg/ml	312.2** pg/ml	–	–
